# Test: gradient 5% acetonitrile 3 min, to 50% in 2 min, to 85% in 15 min, held 3 min, 100 µL/min
# Conditions: column: Zorbax Extend-C18 2.1 x 50 mm; eluents: water / acetonitrile, 0.1% formic acid
# Procedure, shortened: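 In both positive and negative ionization mode, a quadrupole time-of-flight mass spectrometer coupled to HPLC analyzed pure standards run in mixtures of ~100 molecules. The Zorbax Extend-C18 column (2.1 × 50 mm, 1.8 μm) was operated at 100 μL/min with water and acetonitrile, each containing 0.1% formic acid. The dead volume was 40 μL and the dwell volume 900 μL. Retention time came from adduct peaks that were computationally picked and individually inspected by hand.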
row,RP-LC retention time,Compound
1,736 s,COc1ccccc1NC(=O)N1CCC(n2cnc3ccccc3c2=O)CC1
2,820 s,CC(=O)N1c2ccccc2CC1c1nc(C2CC2)no1 (centres undefined)
3,1030 s,CCC(=O)N1CCc2c(-c3ccc(OC)cc3)cccc2[C@H]1C
4,778 s,Cc1ccc2nc(-c3ccccc3F)cc(C(N)=O)c2c1
5,753 s,O=C(Cc1nnc(-c2ccc3ncccc3c2)o1)N1CCN(c2ccccc2F)CC1
6,753 s,O=C(NCC1CCN(C(=O)COc2ccccc2)CC1)c1ccccc1C(F)(F)F
7,637 s,CCOC(=O)c1cccc(NC(=O)N2CCN(C)c3ncccc32)c1
8,688 s,CC(C)OCCCNC(=O)c1ccc2c(c1)NC(=O)C(C(C)C)N2 (centres undefined)
9,868 s,Cc1cccc(CNC(=O)C2CCCN2S(=O)(=O)c2cc3c(cc2Cl)NC(=O)CO3)c1 (centres undefined)
10,573 s,CN(C)[C@@H]1CN(C(=O)c2cccc(Br)c2)C[C@H]1CO
11,924 s,O=C(Nc1ccc(Cl)cc1)C1CCCN1S(=O)(=O)c1cccc2nsnc12 (centres undefined)
12,822 s,COc1ccc(S(=O)(=O)Nc2cccn3c(C4CCC4)nnc23)cc1Cl
13,636 s,COc1cc(-c2nc3cc(C)ccn3c2Nc2ccc3c(c2)OCCO3)ccc1O
14,755 s,COCc1cc(=O)n(CC(=O)Nc2ccc(OC)cc2)c(N2CCOCC2)n1
15,673 s,C[C@@H](NC(=O)c1ccc(Cl)cc1)C(=O)NCc1cscn1
16,852 s,O=C(NCC1(c2ccccc2)CCOCC1)c1cccc(C(F)(F)F)c1
17,766 s,O=C(c1ccsc1)N1CCCC(OCc2nc(C3CC3)no2)C1 (centres undefined)
18,1330 s,CCOc1cccc(-c2noc(Cn3ncn4nc(-c5ccc(C)cc5C)cc4c3=O)n2)c1
19,641 s,C=CCNC(=O)c1cc(=O)[nH]c2c(Cl)cccc12
20,799 s,Cc1ccc(CNC(=O)c2ncn3c2C(=O)N(C2CC2)C(C)(C(=O)NCc2ccc(F)cc2)C3)cc1 (centres undefined)
21,585 s,Cc1nc2cccnc2n1CCN1CCN(C(=O)Nc2ccc(F)cc2F)CC1
22,718 s,O=C(NCc1ccc(C(F)(F)F)cc1)C1CCN(c2nnc3ccc(Cl)cn23)CC1

row,RP-LC retention time,Compound
1,687 s,CCOC(=O)C1=C(CN2CCC(c3ccccc3)C2)NC(=O)NC1c1cccc(OC)c1OC (centres undefined)
2,628 s,CCn1c(C2CCCN(C(=O)NCC(C)C)C2)nn(C)c1=O (centres undefined)
3,1230 s,O=C(NCc1ccc(Cl)cc1)c1c(O)c2cccnc2n(-c2ccc(F)cc2)c1=O
4,769 s,CCOC(=O)c1cn(Cc2ccccc2)c2ccccc2c1=O
5,1150 s,Cc1cccc(N2CCN(c3ccc4cc(S(=O)(=O)N5CCCC5)ccc4n3)CC2)c1C
6,908 s,Cc1cccc(C2CCCN2C(=O)c2c(Br)cnn2C)c1 (centres undefined)
7,863 s,CCC(NC(=O)C1CCN(c2nnc(-c3ccc(OC)cc3)o2)CC1)c1cccs1 (centres undefined)
8,887 s,C=CCN1C(=O)COc2ccc(-c3nc(NC(=O)C4CC4)sc3C)cc21
9,747 s,CC1CCN(c2ccc(-c3cccc(NC(=O)NCc4ccccc4)c3)nn2)CC1
10,682 s,COCCC(=O)N1CCCn2nc(-c3cccs3)cc2C1
11,879 s,O=C1CC(C(=O)N2CCc3ccccc3C2)CN1CCc1c[nH]c2ccc(Cl)cc12 (centres undefined)
12,757 s,CC(C)C(=O)NCc1csc(C2CCCN(C(=O)c3cc(F)cc(F)c3)C2)n1 (centres undefined)
13,697 s,CC1CCc2c(sc3nc(CCC(=O)N4CCC(C(N)=O)CC4)[nH]c(=O)c23)C1 (centres undefined)
14,677 s,CCc1cc(-c2csc(S(=O)(=O)NCCCN3CCC(C)CC3)c2)on1
15,1100 s,COc1ccc(-c2nnc(-c3ccc(Cl)c(S(=O)(=O)N4CCCCC4)c3)o2)cc1
16,1300 s,CCOc1ccccc1NC(=O)c1cn(-c2cc(N3CCC(C)CC3)ncn2)cn1
17,919 s,COc1cccc(Oc2nccn3c(=O)n(CC(=O)Nc4cccc(C(F)(F)F)c4)nc23)c1
18,963 s,CC1Cc2ccccc2N1C(=O)Cn1c(=O)n(C(C)C)c2ccc(S(=O)(=O)N3CCCC3)cc21 (centres undefined)
19,1100 s,Cc1ccc(-c2nc(Nc3ccc(C)c(Cl)c3)sc2CC(=O)O)cc1
20,685 s,O=[N+]([O-])c1ccc(/C=C\c2ccncc2)cc1
21,778 s,CCS(=O)(=O)N1CC(=O)N(c2ccc(F)cc2)C(C)(C(=O)NCc2ccccc2)C1 (centres undefined)
22,891 s,O=C(N1CCc2ccccc2C1)C1(c2ccccc2)CCOCC1

row,RP-LC retention time,Compound
1,581 s,O=C(Nc1ccc(C2=NCCCN2)cc1)Nc1ccc(C2=NCCCN2)cc1
2,738 s,CCS(=O)(=O)N1CCC(C(=O)NCCc2csc(-c3cccs3)n2)CC1
3,652 s,NC(=O)C1CCN(c2oc(-c3ccco3)nc2S(=O)(=O)c2ccccc2)CC1
4,776 s,COc1cccc(N2CC(C(=O)N3CC(c4nc(Cc5ccccc5)no4)C3)CC2=O)c1 (centres undefined)
5,660 s,O=C(CSCc1ccccc1)NCC1(CO)CC1
6,661 s,COc1ccc(-c2nn(-c3ccccc3)cc2C(=O)O)cc1N
7,855 s,CCOc1ccc(NC(=O)NC(C)C(=O)N2CCc3ccccc32)cc1 (centres undefined)
8,824 s,CC(=O)c1ccc(N2CCN(C(=O)Cn3cccc3-c3nnc(C4CCC4)o3)CC2)cc1
9,701 s,COc1cc(C2=NN(C(C)=O)C(c3cccnc3)O2)cc(OC)c1OC (centres undefined)
10,1090 s,Cc1ccc(-c2csc(NC(=O)CC(C)C)n2)c(C)c1
11,1070 s,O=C(Nc1ccc2sccc2c1)c1coc2ccccc2c1=O
12,856 s,Cc1ccc(C)c(-c2cc3c4nn(CC(=O)NC(C)C)c(=O)n4ccn3n2)c1
13,610 s,CCc1nc(N)n(CC(=O)Nc2cccc(C)c2)c(=O)c1C
14,694 s,COc1ccc(S(=O)(=O)N2CCC(n3cnnc3C)CC2)cc1Cl
15,901 s,O=C(Nc1ccc2c(c1)CN(S(=O)(=O)c1ccccc1)CC2)NC1CCCCC1
16,622 s,CCN1CCn2cc(C(=O)N3CCN(c4ccccc4Cl)CC3)nc2C1
17,710 s,O=C(Nc1ccc(F)c(Cl)c1)N1CCC(OC2CCN(Cc3ccccc3)CC2)CC1
18,703 s,COc1ccc(NC(=O)Cn2c(C(C)C)nc3c(c2=O)CCN(Cc2ccccc2)C3)c(OC)c1
19,846 s,CCOC(=O)c1c(C)[nH]c(C(=O)N2CCC(C(C)C(=O)NCc3ccc(C)cc3)CC2)c1C (centres undefined)
20,1030 s,O=C(CN1C(=O)CSc2cccn2-c2ccccc21)NCCC1=CCCCC1
21,863 s,O=C(C1CCN(S(=O)(=O)c2cc(-c3noc(C4CCC4)n3)cs2)CC1)N1CCOCC1
22,614 s,COc1ccc(NC(=O)CN2CCc3[nH]c4c(C)ccc(C)c4c(=O)c3C2)cc1OC

row,RP-LC retention time,Compound
1,971 s,CCn1nc(-c2csc(S(=O)(=O)N3CCC(C)CC3)c2)ccc1=O
2,747 s,Cc1cccc2nc(-c3ccc(N(C)C)cc3)c(Nc3ccc4c(c3)OCO4)n12
3,716 s,CCn1cc(CC(=O)NCc2ccc(OC)cc2)c2cccnc21
4,844 s,COc1ccc(NS(=O)(=O)c2ccc3c(c2)C(=O)N(C)c2ncccc2O3)cc1
5,604 s,Cn1c(C(=O)NCc2ccccc2)cc2ccncc21
6,784 s,O=C(c1ccc(N2CCN(c3ncccn3)CC2)nn1)N1CCc2ccccc21
7,1020 s,Cc1ccc(-c2noc(CN3N=NC4C(=O)N(c5ccc(C)cc5)C(=O)C43)n2)cc1 (centres undefined)
8,890 s,CCC(=O)n1nc(-c2cccc(C)c2)nc1N
9,879 s,CCn1cc(-c2ccc(Cl)cc2)cc1C(=O)NCCCN1CCCC1=O
10,619 s,O=C1C(c2cccnc2)N(Cc2ccco2)C(=O)CN1c1ccccc1 (centres undefined)
11,667 s,COc1ccc(CCC(=O)N2CCC[C@@H]2C(=O)NCCc2csc(C)n2)cc1
12,882 s,CCS(=O)(=O)N1CC(=O)N(c2ccc(Cl)cc2C)C(C)(C(=O)NCc2ccc(F)cc2)C1 (centres undefined)
13,1300 s,CCn1nccc1-c1cccc(-c2noc(-c3cc(Cl)ccc3F)n2)c1
14,693 s,CCCN1CCN(C(=O)C2CCN(c3nc4ccc(-c5ccccc5)nc4s3)CC2)CC1
15,650 s,Cc1c2cnn(CC(=O)N3CCN(c4ccccn4)CC3)c(=O)c2c(C)n1Cc1ccccc1F
16,975 s,COc1ccc(-c2nn3c(-c4ccc5ccccc5n4)nnc3s2)cc1
17,725 s,O=C(CSc1ccc(N2CCOCC2)nn1)Nc1ccc(Cl)cc1
18,886 s,O=C(N1CCCC1c1nc(CCOCC2CC2)no1)C1(c2ccccc2)CC1 (centres undefined)
19,722 s,CCOc1ccc(-n2nnnc2CNC(=O)Nc2cccs2)cc1
20,583 s,COc1ccccc1-c1[nH]ncc1CN1C[C@@H]2CCN(S(C)(=O)=O)C[C@]2(CF)C1
21,677 s,Cc1ccc(-c2ccc(=O)n(Cc3noc(C(=O)NCCN4CCC(C)CC4)n3)n2)cc1

row,Compound,RP-LC retention time
1,COc1cc2c(cc1O)CC1c3c(cc(O)c(OC)c3-2)CCN1C (centres undefined),628 s
2,CCn1cc(-c2ccc(F)cc2)cc1C(=O)N1CCC2(CC1)OCCO2,963 s
